These results are taken from paper PMC7961048, “Hierarchized phosphotarget binding by the seven human 14-3-3 isoforms” (Nature Communications, 2021).

Starred links: 1 amine or outer side, 2 acyl side, 3 side chain; linkers in the order of their positions; H or OH if unused. Non-standard residues stand in square brackets, D forms with d. Residues, ends and D or L forms follow the SMILES beside them. *: point of attachment. X1 = O=C(CCCC[C@@H]1SC[C@@H]2NC(=O)N[C@@H]21)NCCCOCCOCCOCCCN*; pT = C[C@@H](OP(=O)(O)O)[C@H](N)C(=O)O; Suc = O=C(CCC(=O)[*:2])[*:1]

Holding throughout (format): binding
Assay [1] deals with T1, 14-3-3ζ (Homo sapiens, UniProt P63104).
T1 construct: Plasmids containing the cDNAs of the full-length 14-3-3 isoforms ε, γ, and ζ were received; made in house; host or cells: E. coli BL21(DE3)
T1 sequence (P63104 1-245): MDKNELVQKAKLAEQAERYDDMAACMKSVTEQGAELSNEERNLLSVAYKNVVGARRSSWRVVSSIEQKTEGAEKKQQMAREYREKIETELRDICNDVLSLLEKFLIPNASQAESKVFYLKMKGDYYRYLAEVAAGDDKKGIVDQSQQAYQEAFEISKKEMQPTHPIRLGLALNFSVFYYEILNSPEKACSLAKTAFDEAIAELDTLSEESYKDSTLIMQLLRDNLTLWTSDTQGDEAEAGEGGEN
In words: biochemical.

For assay [2], the target named is T2, 14-3-3ε (Homo sapiens, UniProt P62258).
T2 construct: Plasmids containing the cDNAs of the full-length 14-3-3 isoforms ε, γ, and ζ were received; made in house; host or cells: E. coli BL21(DE3)
T2 sequence (P62258 1-255): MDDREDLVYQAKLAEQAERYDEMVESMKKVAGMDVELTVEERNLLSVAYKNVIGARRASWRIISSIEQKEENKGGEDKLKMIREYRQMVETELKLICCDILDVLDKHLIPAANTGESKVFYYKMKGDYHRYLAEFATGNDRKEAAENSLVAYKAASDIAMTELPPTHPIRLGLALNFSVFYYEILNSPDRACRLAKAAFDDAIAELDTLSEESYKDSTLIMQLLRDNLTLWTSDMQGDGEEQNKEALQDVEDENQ
In words: biochemical.

Assay [3] deals with seven human 14-3-3 isoforms. In words: Affinities averaged or compared across the 14-3-3 family (ΔΔGav, KD ratios, affinity maps). To be noted: for KD ratios, compared to LRRK2 pS910/pS935, average: average over the isoforms. From the text:
Former studies have measured the binding of the seven human 14-3-3 isoforms to unrelated phospho-motifs derived from Cystic Fibrosis Transmembrane Conductance Regulator (CFTR), Leucine-Rich Repeat Kinase 2 (LRRK2), Potassium channel subfamily K members (TASK1/3), C-Raf, the p65 subunit of the NF-κB transcription factor, and from Ubiquitin carboxyl-terminal hydrolase 8 (USP8), representing a wide variety of different 14-3-3-binding motifs, including C-terminal, internal, monovalent, or divalent motifs[40],[44]–[48].
(gray background). The color scale is either based on affinity values or on KD ratios. √ denotes affinities weaker than the limit of quantitation of the experimental assays. b Same map as in a, normalized to the strongest 14-3-3-binding motif. […] Source data are provided as a Source Data file.
All binding data and the obtained fits are provided as Supplementary Data File 1.

`CC(C)C[C@H](NC(=O)[C@H](CCC(N)=O)NC(=O)[C@@H](NC(=O)[C@H](CCC(=O)O)NC(=O)[C@H](CCCNC(=N)N)NC(=O)[C@H](CCCNC(=N)N)NC(=O)[C@@H](NC(=O)[C@H](CCCNC(=N)N)NC(=O)[C@H](CO)NC(=O)[C@H](CO)NC(=O)CCC(=O)NCCCOCCOCCOCCCNC(=O)CCCC[C@@H]1SC[C@@H]2NC(=O)N[C@@H]21)[C@@H](C)O)[C@@H](C)OP(=O)(O)O)C(=O)O` [pHPV16E6] showed a Kd in assay [1] of 73.6 ± 19.1 µM. Also, the Kd in assay [2] is > 300 µM. Further, the “Binding affinities (KD) of various 14-3-3-binding motifs, 14-3-3ε” value in assay [2] (Figure 4 panel a, unit from the colour scale line, motifs measured in this work) was “√”. In addition, in assay [3] (Figure 4 panel b), the “KD ratios, compared to LRRK2 pS910/pS935, 14-3-3β” value is given as 7536; the “KD ratios, compared to LRRK2 pS910/pS935, 14-3-3γ” value is on record as 11625; the “KD ratios, compared to LRRK2 pS910/pS935, 14-3-3ζ” value is 15333; the “KD ratios, compared to LRRK2 pS910/pS935, 14-3-3η” value is 16771. Besides, in assay [3] (Figure 4 panel b), the “KD ratios, compared to LRRK2 pS910/pS935, 14-3-3τ” value was 15158 and the “KD ratios, compared to LRRK2 pS910/pS935, average” value worked out at 13000. For the same compound, in assay [3] (Figure 4 panel c), the “KD ratios, compared to 14-3-3γ, 14-3-3β” value came to 4.27; the “KD ratios, compared to 14-3-3γ, 14-3-3γ” value amounted to 1.00; the “KD ratios, compared to 14-3-3γ, 14-3-3ζ” value was determined as 1.98; the “KD ratios, compared to 14-3-3γ, 14-3-3η” value is given as 2.16. Further, in assay [3] (Figure 4 panel c), the “KD ratios, compared to 14-3-3γ, 14-3-3τ” value turned out to be 3.87. For the same compound, the “binding to 14-3-3 proteins” value in assay [3] (competitive FP, seven MBP-fused full-length 14-3-3 isoforms, result in words) is recorded as “detectably bound”.

For the compound `CC(C)[C@H](NC(=O)[C@H](C)NC(=O)[C@@H](NC(=O)[C@H](CCC(=O)O)NC(=O)[C@H](CCCNC(=N)N)NC(=O)[C@H](CCCNC(=N)N)NC(=O)[C@@H](NC(=O)[C@@H]1CCCN1C(=O)[C@H](CCCCN)NC(=O)[C@H](CO)NC(=O)CCC(=O)NCCCOCCOCCOCCCNC(=O)CCCC[C@@H]1SC[C@@H]2NC(=O)N[C@@H]21)[C@@H](C)O)[C@@H](C)OP(=O)(O)O)C(=O)O` [pHPV35E6E-1A] ({X1-Suc}-SKPTRRE[pT]AV-OH), the affinity in assay [1], expressed as Kd, was 17.6 µM. The affinity in assay [2], expressed as Kd, was 31.9 µM. For the same compound, in assay [3] (Figure 4 panel b), the “KD ratios, compared to LRRK2 pS910/pS935, 14-3-3β” value amounted to 957.35; the “KD ratios, compared to LRRK2 pS910/pS935, 14-3-3γ” value was determined as 2909.38; the “KD ratios, compared to LRRK2 pS910/pS935, 14-3-3ζ” value worked out at 3666.67; the “KD ratios, compared to LRRK2 pS910/pS935, 14-3-3η” value was 2583.33. In assay [3] (Figure 4 panel b), the “KD ratios, compared to LRRK2 pS910/pS935, 14-3-3τ” value worked out at 2263.16 and the “KD ratios, compared to LRRK2 pS910/pS935, average” value turned out to be 2200.00. Moreover, the “KD ratios, compared to LRRK2 pS910/pS935, 14-3-3ε” value in assay [3] (Figure 4 panel b, 14-3-3ε) came out at 2572.58. Also, the “KD ratios, compared to LRRK2 pS910/pS935, 14-3-3σ” value in assay [3] (Figure 4 panel b, 14-3-3σ) amounted to 727.72. In addition, in assay [3] (Figure 4 panel c), the “KD ratios, compared to 14-3-3γ, 14-3-3β” value stood at 2.17; the “KD ratios, compared to 14-3-3γ, 14-3-3γ” value is on record as 1.00; the “KD ratios, compared to 14-3-3γ, 14-3-3ζ” value is given as 1.89; the “KD ratios, compared to 14-3-3γ, 14-3-3η” value stood at 1.33. In addition, in assay [3] (Figure 4 panel c), the “KD ratios, compared to 14-3-3γ, 14-3-3τ” value is reported as 2.31. Further, the “KD ratios, compared to 14-3-3γ, 14-3-3ε” value in assay [3] (Figure 4 panel c, 14-3-3ε) is 3.43. In assay [3] (Figure 4 panel c, 14-3-3σ), the “KD ratios, compared to 14-3-3γ, 14-3-3σ” value is 4.74.

Usually Kd stands for the equilibrium constant for the complex coming apart. Low readings indicate tighter binding, high ones weaker binding.
